Activity calls are given as the source filed them. The rule behind the calls is not given here.
Experiments:
HT-29 = experiment: Cytotoxicity against human HT-29 cells by MTT assay; type: functional, cell-based
K562 [1] = experiment: Cytotoxicity against human K562 cells by MTT assay; type: functional, cell-based
HepG2 [2] = experiment: Cytotoxicity against human HepG2 cells by MTT assay; type: functional, cell-based
[3] = Cytotoxicity against HEK293T cells; type: toxicity, cell-based, HEK-293T; conditions: human
[4] = Cytotoxicity against HUVEC cells; type: toxicity, cell-based; conditions: human
MDA-MB-231 = experiment: Cytotoxicity against human MDA-MB-231 cells; type: functional, cell-based
K562 [5] = experiment: Induction of cell cycle arrest in human K562 cells assessed as accumulation of cells at G2 phase at 2 uM incubated for 6 hrs by flow cytometry (reference value: 13.40%); type: functional
K562 [6] = experiment: Induction of apoptosis in human K562 cells assessed as inhibition of cell growth after 12 to 72 hrs; type: functional, cell-based; conditions: dose 0.2-20 µM, time 12-72 hrs
HepG2 [7] = experiment: Inhibition of cell migration human HepG2 cells assessed as migration distance at 0.3 uM incubated for 24 hrs by wound healing assay (reference value: 424.41 micrometer); type: functional
K562 [8] = experiment: Induction of apoptosis in human K562 cells assessed as appearance of apoptotic bodies at 2 to 20 uM by light microscopic analysis; type: functional, cell-based; conditions: dose 2-20 µM, TDE = time-dependent effect
K562 [9] = experiment: Induction of cell cycle arrest in human K562 cells assessed as accumulation of cells at S phase at 2 uM incubated for 6 hrs by flow cytometry (reference value: 28.87%); type: functional
K562 [10] = experiment: Induction of cell cycle arrest in human K562 cells assessed as accumulation of cells at G2 phase at 20 uM incubated for 12 hrs by flow cytometry (reference value: 11.93%); type: functional
K562 [11] = experiment: Induction of cell cycle arrest in human K562 cells assessed as accumulation of cells at S phase at 2 uM incubated for 12 hrs by flow cytometry (reference value: 16.9%); type: functional
K562 [12] = experiment: Induction of apoptosis in human K562 cells assessed as inhibition of cell growth at 2 to 20 uM; type: functional, cell-based; conditions: dose 2-20 µM, time 12-72 hrs, TDE = time-dependent effect
K562 [13] = experiment: Induction of cell cycle arrest in human K562 cells assessed as accumulation of cells at G2 phase at 2 uM incubated for 12 hrs by flow cytometry (reference value: 11.93%); type: functional
K562 [14] = experiment: Induction of apoptosis in human K562 cells at 20 uM after 48 hrs by annexin V-FITC and PI staining based method (reference value: 9.8%); type: functional
K562 [15] = experiment: Induction of cell cycle arrest in human K562 cells assessed as accumulation of cells at G1 phase at 20 uM incubated for 6 hrs by flow cytometry (reference value: 57.73%); type: functional
HepG2 [16] = experiment: Inhibition of cell migration human HepG2 cells assessed as migration distance at 0.3 uM incubated for 36 hrs by wound healing assay (reference value: 243.56 micrometer); type: functional
K562 [17] = experiment: Induction of apoptosis in human K562 cells at 2 uM after 24 hrs by annexin V-FITC and PI staining based method (reference value: 9%); type: functional
HCT-116 = experiment: Cytotoxicity against human HCT-116 cells; type: functional, cell-based
K562 [18] = experiment: Induction of cell cycle arrest in human K562 cells assessed as accumulation of cells at S phase at 20 uM incubated for 12 hrs by flow cytometry (reference value: 16.9%); type: functional
HepG2 [19] = experiment: Inhibition of cell migration human HepG2 cells assessed as migration distance at 3 uM incubated for 24 hrs by wound healing assay (reference value: 424.41 micrometer); type: functional
HepG2 [20] = experiment: Inhibition of cell migration human HepG2 cells at 0.3 to 3 uM incubated for 48 hrs by Transwell assay; type: functional, cell-based; conditions: dose 0.3-3 µM
K562 [21] = experiment: Induction of apoptosis in human K562 cells at 20 uM after 12 hrs by annexin V-FITC and PI staining based method (reference value: 8.4%); type: functional
K562 [22] = experiment: Induction of cell cycle arrest in human K562 cells assessed as accumulation of cells at G1 phase at 2 uM incubated for 6 hrs by flow cytometry (reference value: 57.73%); type: functional
HepG2 [23] = experiment: Inhibition of cell migration human HepG2 cells assessed as migration distance at 3 uM incubated for 48 hrs by wound healing assay (reference value: 0 micrometer); type: functional
K562 [24] = experiment: Induction of cell cycle arrest in human K562 cells assessed as accumulation of cells at S phase at 20 uM incubated for 24 hrs by flow cytometry (reference value: 17.51%); type: functional
HepG2 [25] = experiment: Inhibition of cell migration human HepG2 cells assessed as migration distance at 3 uM incubated for 36 hrs by wound healing assay (reference value: 243.56 micrometer); type: functional
HepG2 [26] = experiment: Inhibition of cell migration human HepG2 cells assessed as migration distance at 0.3 uM incubated for 12 hrs by wound healing assay (reference value: 566.76 micrometer); type: functional
K562 [27] = experiment: Induction of cell cycle arrest in human K562 cells assessed as accumulation of cells at G1 phase at 20 uM incubated for 12 hrs by flow cytometry (reference value: 71.17%); type: functional
HepG2 [28] = experiment: Inhibition of cell migration human HepG2 cells assessed as migration distance at 1 uM incubated for 36 hrs by wound healing assay (reference value: 243.56 micrometer); type: functional
K562 [29] = experiment: Induction of apoptosis in human K562 cells at 20 uM after 24 hrs by annexin V-FITC and PI staining based method (reference value: 9%); type: functional
HepG2 [30] = experiment: Inhibition of cell migration human HepG2 cells assessed as migration distance at 1 uM incubated for 48 hrs by wound healing assay (reference value: 0 micrometer); type: functional
K562 [31] = experiment: Induction of cell cycle arrest in human K562 cells assessed as accumulation of cells at G1 phase at 2 uM incubated for 24 hrs by flow cytometry (reference value: 82.22%); type: functional
K562 [32] = experiment: Induction of cell cycle arrest in human K562 cells assessed as accumulation of cells at G1 phase at 20 uM incubated for 24 hrs by flow cytometry (reference value: 82.22%); type: functional
K562 [33] = experiment: Induction of cell cycle arrest in human K562 cells assessed as accumulation of cells at G2 phase at 2 uM incubated for 24 hrs by flow cytometry (reference value: 0.27%); type: functional
HepG2 [34] = experiment: Inhibition of cell migration human HepG2 cells assessed as migration distance at 1 uM incubated for 24 hrs by wound healing assay (reference value: 424.41 micrometer); type: functional
K562 [35] = experiment: Induction of cell cycle arrest in human K562 cells assessed as accumulation of cells at G2 phase at 20 uM incubated for 6 hrs by flow cytometry (reference value: 13.40%); type: functional
K562 [36] = experiment: Induction of apoptosis in human K562 cells at 2 uM after 12 hrs by annexin V-FITC and PI staining based method (reference value: 8.4%); type: functional
HepG2 [37] = experiment: Inhibition of cell migration human HepG2 cells assessed as migration distance at 3 uM incubated for 12 hrs by wound healing assay (reference value: 566.76 micrometer); type: functional
HepG2 [38] = experiment: Inhibition of cell migration human HepG2 cells assessed as migration distance at 0.3 uM incubated for 48 hrs by wound healing assay (reference value: 0 micrometer); type: functional
K562 [39] = experiment: Induction of apoptosis in human K562 cells at 2 uM after 48 hrs by annexin V-FITC and PI staining based method (reference value: 9.8%); type: functional
K562 [40] = experiment: Induction of cell cycle arrest in human K562 cells assessed as accumulation of cells at S phase at 20 uM incubated for 6 hrs by flow cytometry (reference value: 28.87%); type: functional
K562 [41] = experiment: Induction of cell cycle arrest in human K562 cells assessed as accumulation of cells at G1 phase at 2 uM incubated for 12 hrs by flow cytometry (reference value: 71.17%); type: functional
K562 [42] = experiment: Induction of cell cycle arrest in human K562 cells assessed as accumulation of cells at S phase at 2 uM incubated for 24 hrs by flow cytometry (reference value: 17.51%); type: functional
K562 [43] = experiment: Induction of cell cycle arrest in human K562 cells assessed as accumulation of cells at G2 phase at 20 uM incubated for 24 hrs by flow cytometry (reference value: 0.27%); type: functional
HepG2 [44] = experiment: Inhibition of cell migration human HepG2 cells assessed as migration distance at 1 uM incubated for 12 hrs by wound healing assay (reference value: 566.76 micrometer); type: functional

In the case of `COc1cc(OC)c(-c2ccc(OC(C)=O)cc2)cc1C(=O)/C=C/c1ccccc1`, the IC50 (HT-29) is reported as > 10 µM, the IC50 (K562 [1]) is reported as > 10 µM and the IC50 (HepG2 [2]) is reported as > 10 µM.

In the case of `CC[C@@]1(O)C(=O)OCc2c1cc1n(c2=O)Cc2cc3ccccc3nc2-1` [CAMPTOTHECIN], the IC50 [3] is reported as 0.03 µM, the IC50 (HT-29) is reported as 0.07 µM and the IC50 (K562 [1]) is reported as 0.04 µM. The IC50 (HepG2 [2]) was 0.02 µM, the IC50 [4] was 0.06 µM and the IC50 (MDA-MB-231) was > 100 µM.

`COc1cc(OC)c(-c2ccc(-c3ccco3)cc2)cc1C(=O)/C=C/c1ccccc1` showed an IC50 (HT-29) of 6.17 µM, an IC50 (K562 [1]) of 4.69 µM and an IC50 (HepG2 [2]) of 5.91 µM.

In the case of `COc1cc(OC)c(-c2ccc(C(F)(F)F)cc2)cc1C(=O)/C=C/c1ccccc1`, the IC50 (HT-29) is reported as > 10 µM, the IC50 (K562 [1]) is reported as 8.7 µM and the IC50 (HepG2 [2]) is reported as > 10 µM.

With `COc1cc(OC)c(-c2ccc(F)cc2)cc1C(=O)/C=C/c1ccccc1` the Activity (K562 [5]) was 11.61%, the IC50 [3] was 5.19 µM and the IC50 (HT-29) was 7.69 µM. For the same compound, the Activity (K562 [6]) was “Dose-Dependent Effect”, the Activity (HepG2 [7]) was 438 um and the Activity (K562 [8]) was “Tde”. The Activity (K562 [9]) was 29.62%, the Activity (K562 [10]) was 10.88% and the Activity (K562 [11]) was 29.39%. For the same compound, the Activity (K562 [12]) was “Tde”, the Activity (K562 [13]) was 12.29% and the Activity (K562 [14]) was 62.6%. For the same compound, the Activity (K562 [15]) was 60.44%, the Activity (HepG2 [16]) was 294.54 um and the Activity (K562 [17]) was 12%. The IC50 (K562 [1]) was 1.97 µM, the IC50 (HepG2 [2]) was 2.23 µM and the IC50 (HCT-116) was 5.17 µM. For the same compound, the Activity (K562 [18]) was 36.55%, the Activity (HepG2 [19]) was 488.94 um and the inhibition (HepG2 [20]) was “Active”. For the same compound, the Activity (K562 [21]) was 11.9%, the Activity (K562 [22]) was 58.77% and the Activity (HepG2 [23]) was 337.11 um. The Activity (K562 [24]) was 44.38%, the Activity (HepG2 [25]) was 423.28 um and the Activity (HepG2 [26]) was 532.4 um. For the same compound, the Activity (K562 [27]) was 52.57%, the Activity (HepG2 [28]) was 401.52 um and the Activity (K562 [29]) was 19.8%. It also gave an Activity (HepG2 [30]) of 301.44 um, an Activity (K562 [31]) of 54.29% and an IC50 [4] of 19.7 µM. The Activity (K562 [32]) was 54.29%, the Activity (K562 [33]) was 7.97% and the Activity (HepG2 [34]) was 486.95 um. The Activity (K562 [35]) was 9.25%, the Activity (K562 [36]) was 8.1% and the Activity (HepG2 [37]) was 534.71 um. For the same compound, the Activity (HepG2 [38]) was 245.7 um, the Activity (K562 [39]) was 32% and the Activity (K562 [40]) was 30.33%. The Activity (K562 [41]) was 58.31%, the Activity (K562 [42]) was 37.74% and the IC50 (MDA-MB-231) was 10.7 µM. It also gave an Activity (K562 [43]) of 1.33% and an Activity (HepG2 [44]) of 551.11 um.

In the case of `COc1ccc(-c2cc(C(=O)/C=C/c3ccccc3)c(OC)cc2OC)cc1`, the IC50 (HT-29) is reported as > 10 µM, the IC50 (K562 [1]) is reported as 7.26 µM and the IC50 (HepG2 [2]) is reported as > 10 µM.

In the case of `COc1cc(OC)c(-c2ccccc2)cc1C(=O)/C=C/c1ccccc1`, the IC50 (HT-29) is reported as 9.17 µM, the IC50 (K562 [1]) is reported as 3.83 µM and the IC50 (HepG2 [2]) is reported as > 10 µM.

With `COc1cc(OC)c(-c2ccc(C)cc2)cc1C(=O)/C=C/c1ccccc1` the IC50 (HT-29) was 9.29 µM, the IC50 (K562 [1]) was 2.59 µM and the IC50 (HepG2 [2]) was > 10 µM.

With `COc1cc(OC)c(-c2ccc(C#N)cc2)cc1C(=O)/C=C/c1ccccc1` the IC50 (HT-29) was > 10 µM, the IC50 (K562 [1]) was > 10 µM and the IC50 (HepG2 [2]) was > 10 µM.

Reference: ChEMBL document CHEMBL5257062, “Synthesis, in vitro cytotoxicity evaluation and mechanism of 5' monosubstituted chalcone derivatives as antitumor agents” (Bioorg Med Chem Lett, 2023)
